System: MV-4-11 cells
Experiment: Gene expression microarray analysis (Affymetrix PrimeView) and GSEA
Type: cell-based, human
Set-up: RFU PODN (11730768_x_at) / Fold change /veh PODN (11730768_x_at) / RFU LINC00158 (11744669_a_at) / Fold change /veh LINC00158 (11744669_a_at) / RFU DUSP10 (11751237_a_at) / Fold change /veh DUSP10 (11751237_a_at) / RFU ID3 (11757404_x_at) / Fold change /veh ID3 (11757404_x_at) / RFU PLEKHG5 (11737974_s_at) / Fold change /veh PLEKHG5 (11737974_s_at) / RFU LRRC4B (11730491_at) / Fold change /veh LRRC4B (11730491_at) / RFU GIMAP4 (11747438_a_at) / Fold change /veh GIMAP4 (11747438_a_at) / RFU KRT8 (11758183_x_at) / Fold change /veh KRT8 (11758183_x_at) / RFU CNN1 (11734310_a_at) / Fold change /veh CNN1 (11734310_a_at) / RFU VPS37D (11726825_at) / Fold change /veh VPS37D (11726825_at) / RFU C10orf10 (11716522_x_at) / Fold change /veh C10orf10 (11716522_x_at) / RFU KIR2DL2 /// KIR2DL4 /// KIR2DL5A /// KIR2DL5B /// KIR2DS1 /// KIR2DS2 /// KIR2DS3 /// KIR2DS4 /// KIR3DL3 /// KIR3DL3 /// KIR3DS1 (11738374_at) / Fold change /veh KIR2DL2 /// KIR2DL4 /// KIR2DL5A /// KIR2DL5B /// KIR2DS1 /// KIR2DS2 /// KIR2DS3 /// KIR2DS4 /// KIR3DL3 /// KIR3DL3 /// KIR3DS1 (11738374_at) / RFU C1QL1 (11718748_at) / Fold change /veh C1QL1 (11718748_at) / RFU TMPRSS4 (11747572_a_at) / Fold change /veh TMPRSS4 (11747572_a_at) / RFU HAMP (11756126_x_at) / Fold change /veh HAMP (11756126_x_at) / RFU RNFT2 (11725882_a_at) / Fold change /veh RNFT2 (11725882_a_at) / RFU NR4A2 (11747474_a_at) / Fold change /veh NR4A2 (11747474_a_at) / RFU ABCC12 (11746883_a_at) / Fold change /veh ABCC12 (11746883_a_at) / RFU TMEM136 (11760407_x_at) / Fold change /veh TMEM136 (11760407_x_at) / RFU CLDN22 /// WWC2 (11732394_at) / Fold change /veh CLDN22 /// WWC2 (11732394_at) / RFU HLA-DPB1 (11760878_x_at) / Fold change /veh HLA-DPB1 (11760878_x_at) / RFU SPINT1 (11716480_a_at) / Fold change /veh SPINT1 (11716480_a_at) / RFU GAP43 (11754022_s_at) / Fold change /veh GAP43 (11754022_s_at) / RFU A4GNT (11735810_at) / Fold change /veh A4GNT (11735810_at) / RFU PRB3 (11715151_x_at) / Fold change /veh PRB3 (11715151_x_at) / RFU TUBB4B (11761932_at) / Fold change /veh TUBB4B (11761932_at) / RFU CAPN14 (11732068_a_at) / Fold change /veh CAPN14 (11732068_a_at) / RFU TMCC2 (11721928_a_at) / Fold change /veh TMCC2 (11721928_a_at) / RFU IRGQ (11745062_a_at) / Fold change /veh IRGQ (11745062_a_at) / RFU FAM174B (11720279_a_at) / Fold change /veh FAM174B (11720279_a_at) / RFU TMPRSS4 (11748680_a_at) / Fold change /veh TMPRSS4 (11748680_a_at) / RFU FAM212B (11763350_a_at) / Fold change /veh FAM212B (11763350_a_at) / RFU PLEKHG5 (11743358_a_at) / Fold change /veh PLEKHG5 (11743358_a_at) / RFU ZSCAN30 (11745921_a_at) / Fold change /veh ZSCAN30 (11745921_a_at) / RFU CMKLR1 (11741424_a_at) / Fold change /veh CMKLR1 (11741424_a_at) / RFU LOC101060620 /// MAPK8IP1 (11723275_at) / Fold change /veh LOC101060620 /// MAPK8IP1 (11723275_at) / RFU SPTSSB (11747773_x_at) / Fold change /veh SPTSSB (11747773_x_at) / RFU PRSS12 (11739890_at) / Fold change /veh PRSS12 (11739890_at) / RFU BIN1 (11741810_x_at) / Fold change /veh BIN1 (11741810_x_at) / RFU WNT11 (11732464_a_at) / Fold change /veh WNT11 (11732464_a_at) / RFU C10orf10 (11716521_a_at) / Fold change /veh C10orf10 (11716521_a_at) / RFU C5orf56 (11738089_at) / Fold change /veh C5orf56 (11738089_at) / RFU CYB561 (11721691_x_at) / Fold change /veh CYB561 (11721691_x_at) / RFU ANKRD19P (11752326_a_at) / Fold change /veh ANKRD19P (11752326_a_at) / RFU OR2T12 /// OR2T33 /// OR2T8 (11738714_s_at) / Fold change /veh OR2T12 /// OR2T33 /// OR2T8 (11738714_s_at) / RFU VCAN (11748164_a_at) / Fold change /veh VCAN (11748164_a_at) / RFU JSRP1 (11732532_at) / Fold change /veh JSRP1 (11732532_at) / RFU KRTAP10-11 (11738290_x_at) / Fold change /veh KRTAP10-11 (11738290_x_at) / RFU MYO3A (11730013_a_at) / Fold change /veh MYO3A (11730013_a_at) / RFU EBF3 (11725865_a_at) / Fold change /veh EBF3 (11725865_a_at) / RFU CAMK2N1 (11719241_x_at) / Fold change /veh CAMK2N1 (11719241_x_at) / RFU C5orf56 (11738088_a_at) / Fold change /veh C5orf56 (11738088_a_at) / RFU OLFML3 (11715873_a_at) / Fold change /veh OLFML3 (11715873_a_at) / RFU LOC100653217 /// NTM (11731650_a_at) / Fold change /veh LOC100653217 /// NTM (11731650_a_at) / RFU MAPK11 (11762145_a_at) / Fold change /veh MAPK11 (11762145_a_at) / RFU FIZ1 (11724087_x_at) / Fold change /veh FIZ1 (11724087_x_at) / RFU OASL (11726364_x_at) / Fold change /veh OASL (11726364_x_at) / RFU SOX15 (11748057_x_at) / Fold change /veh SOX15 (11748057_x_at) / RFU CD79A (11719716_a_at) / Fold change /veh CD79A (11719716_a_at) / RFU HIST1H1D (11736915_at) / Fold change /veh HIST1H1D (11736915_at) / RFU CASKIN2 (11723855_a_at) / Fold change /veh CASKIN2 (11723855_a_at) / RFU LOC730098 (11760151_x_at) / Fold change /veh LOC730098 (11760151_x_at) / RFU OR4N2 (11742367_at) / Fold change /veh OR4N2 (11742367_at) / RFU PRRT2 (11749266_a_at) / Fold change /veh PRRT2 (11749266_a_at) / RFU SNX32 (11753110_a_at) / Fold change /veh SNX32 (11753110_a_at) / RFU CDHR5 (11726645_a_at) / Fold change /veh CDHR5 (11726645_a_at) / RFU RCAN1 (11760418_a_at) / Fold change /veh RCAN1 (11760418_a_at) / RFU FAM167A (11723789_a_at) / Fold change /veh FAM167A (11723789_a_at) / RFU FAM26E (11764081_at) / Fold change /veh FAM26E (11764081_at) / RFU ISYNA1 (11749810_s_at) / Fold change /veh ISYNA1 (11749810_s_at) / RFU ACY1 (11761880_at) / Fold change /veh ACY1 (11761880_at) / RFU 11764098_at / Fold change /veh 11764098_at / RFU SAMD14 (11745864_x_at) / Fold change /veh SAMD14 (11745864_x_at) / RFU NPB (11741838_a_at) / Fold change /veh NPB (11741838_a_at) / RFU TMPRSS6 (11731388_a_at) / Fold change /veh TMPRSS6 (11731388_a_at) / RFU KRTAP10-2 (11738614_at) / Fold change /veh KRTAP10-2 (11738614_at) / RFU ARHGAP8 /// PRR5-ARHGAP8 (11727945_x_at) / Fold change /veh ARHGAP8 /// PRR5-ARHGAP8 (11727945_x_at) / RFU KRTAP5-7 /// NADSYN1 (11734609_at) / Fold change /veh KRTAP5-7 /// NADSYN1 (11734609_at) / RFU RASL12 (11751679_a_at) / Fold change /veh RASL12 (11751679_a_at) / RFU CDKN2B (11736163_a_at) / Fold change /veh CDKN2B (11736163_a_at) / RFU PRF1 (11729649_at) / Fold change /veh PRF1 (11729649_at) / RFU, ZNF638 /// ZNF638-IT1 / Fold change vs veh, ZNF638 /// ZNF638-IT1 / RFU, PANK3 / Fold change vs veh, PANK3 / RFU, SH3YL1 / Fold change vs veh, SH3YL1 / RFU, ZEB2 / Fold change vs veh, ZEB2 / RFU, NRIP1 / Fold change vs veh, NRIP1 / RFU, PTTG1IP / Fold change vs veh, PTTG1IP / RFU, CAPN2 / Fold change vs veh, CAPN2 / RFU, MED14 / Fold change vs veh, MED14 / RFU, SNORA58 / Fold change vs veh, SNORA58 / RFU, C1orf63 / Fold change vs veh, C1orf63 / RFU, LRRFIP1 / Fold change vs veh, LRRFIP1 / RFU, NDUFAF7 / Fold change vs veh, NDUFAF7 / RFU, SLC12A2 / Fold change vs veh, SLC12A2 / RFU, IBTK / Fold change vs veh, IBTK / RFU, ESF1 / Fold change vs veh, ESF1 / Fold change vs veh, TMEM50B / RFU, TAOK1 / Fold change vs veh, TAOK1 / RFU, ACBD3 / Fold change vs veh, ACBD3 / RFU, TMA16 / Fold change vs veh, TMA16 / RFU, RWDD3 / Fold change vs veh, RWDD3 / RFU, BCAT1 / Fold change vs veh, BCAT1 / RFU, EDEM3 / Fold change vs veh, EDEM3 / RFU, TMEM33 / Fold change vs veh, TMEM33 / RFU, WDR75 / Fold change vs veh, WDR75 / RFU, AHCTF1 / Fold change vs veh, AHCTF1 / RFU, TFRC / Fold change vs veh, TFRC / RFU, ZDHHC17 / Fold change vs veh, ZDHHC17 / RFU, NOM1 / Fold change vs veh, NOM1 / RFU, ARL8B / Fold change vs veh, ARL8B / RFU, ZBTB11 / Fold change vs veh, ZBTB11 / RFU, TAMM41 / Fold change vs veh, TAMM41 / RFU, KIAA1704 /// LOC100996395 / Fold change vs veh, KIAA1704 /// LOC100996395 / RFU, ING1 / Fold change vs veh, ING1 / RFU, TRMT61B / Fold change vs veh, TRMT61B / RFU, FUBP3 / Fold change vs veh, FUBP3 / RFU, TP53 / Fold change vs veh, TP53 / RFU, TNKS2 / Fold change vs veh, TNKS2 / RFU, ZFP14 / Fold change vs veh, ZFP14 / RFU, ACTR2 / Fold change vs veh, ACTR2 / RFU, PPP3R1 / Fold change vs veh, PPP3R1 / RFU, PIK3R1 / Fold change vs veh, PIK3R1 / RFU, HNRNPA1 / Fold change vs veh, HNRNPA1 / RFU, RNF170 / Fold change vs veh, RNF170 / RFU, ZNF28 / Fold change vs veh, ZNF28 / RFU, RNGTT / Fold change vs veh, RNGTT / RFU, OGT / Fold change vs veh, OGT / RFU, BRD1 / Fold change vs veh, BRD1 / RFU, MARS / Fold change vs veh, MARS / RFU, ZNF655 / Fold change vs veh, ZNF655 / RFU, FAHD1 / Fold change vs veh, FAHD1 / RFU, BDP1 / Fold change vs veh, BDP1 / RFU, LRRCC1 / Fold change vs veh, LRRCC1 / RFU, ARID1A / Fold change vs veh, ARID1A / RFU, ZNF146 / Fold change vs veh, ZNF146 / RFU, ZNF330 / Fold change vs veh, ZNF330 / RFU, GPN3 / Fold change vs veh, GPN3 / RFU, C9orf123 / Fold change vs veh, C9orf123 / RFU, N4BP2L2 / Fold change vs veh, N4BP2L2 / RFU, ARFIP1 / Fold change vs veh, ARFIP1 / RFU, FAM179B / Fold change vs veh, FAM179B / RFU, BCL10 / Fold change vs veh, BCL10 / RFU, UHRF1BP1L / Fold change vs veh, UHRF1BP1L / RFU, BET1 / Fold change vs veh, BET1 / RFU, CNOT2 / Fold change vs veh, CNOT2 / RFU, ZNF268 / Fold change vs veh, ZNF268 / Fold change vs veh, ZNF507 / RFU, DGCR2 / Fold change vs veh, DGCR2 / RFU, WDSUB1 / Fold change vs veh, WDSUB1 / Fold change vs veh, HSP90B1 /// MIR3652 / RFU, ADSS / Fold change vs veh, ADSS / RFU, GK / Fold change vs veh, GK / RFU, ZNF148 / Fold change vs veh, ZNF148 / RFU, TAF9 / Fold change vs veh, TAF9 / RFU, SLC1A5 / Fold change vs veh, SLC1A5 / RFU, SLMO2 / Fold change vs veh, SLMO2 / RFU, ABCC4 / Fold change vs veh, ABCC4 / RFU, LOC101060439 /// RAP1B / Fold change vs veh, LOC101060439 /// RAP1B / RFU, RFX7 / Fold change vs veh, RFX7 / RFU, GTPBP10 / Fold change vs veh, GTPBP10 / RFU, CNEP1R1 / Fold change vs veh, CNEP1R1 / RFU, BIVM-ERCC5 /// ERCC5 / Fold change vs veh, BIVM-ERCC5 /// ERCC5 / RFU, ILF3 / Fold change vs veh, ILF3 / RFU 11762660_at / Fold change /veh 11762660_at / RFU VCAN (11757783_s_at) / Fold change /veh VCAN (11757783_s_at) / RFU DDX43 (11728927_at) / Fold change /veh DDX43 (11728927_at) / RFU KRT8 (11758188_x_at) / Fold change /veh KRT8 (11758188_x_at) / RFU NKD1 (11759106_at) / Fold change /veh NKD1 (11759106_at) / RFU SRD5A1 (11742802_a_at) / Fold change /veh SRD5A1 (11742802_a_at) / RFU TPSAB1 /// TPSB2 (11721975_s_at) / Fold change /veh TPSAB1 /// TPSB2 (11721975_s_at) / RFU GSTM3 (11746129_a_at) / Fold change /veh GSTM3 (11746129_a_at) / RFU IL23R (11737362_x_at) / Fold change /veh IL23R (11737362_x_at) / RFU TMEM51 (11727254_a_at) / Fold change /veh TMEM51 (11727254_a_at) / RFU PIWIL2 (11732686_x_at) / Fold change /veh PIWIL2 (11732686_x_at) / RFU ORM1 (11744905_x_at) / Fold change /veh ORM1 (11744905_x_at) / RFU CCDC152 (11743942_at) / Fold change /veh CCDC152 (11743942_at) / RFU ECM1 (11717891_a_at) / Fold change /veh ECM1 (11717891_a_at) / RFU IL23R (11748794_a_at) / Fold change /veh IL23R (11748794_a_at) / RFU TNFAIP8L3 (11732012_x_at) / Fold change /veh TNFAIP8L3 (11732012_x_at) / RFU MBOAT4 (11741988_at) / Fold change /veh MBOAT4 (11741988_at) / RFU 11764193_at / Fold change /veh 11764193_at / RFU TMEM53 (11763286_at) / Fold change /veh TMEM53 (11763286_at) / RFU MAGEB2 (11727129_at) / Fold change /veh MAGEB2 (11727129_at) / RFU TMEM200A (11744735_a_at) / Fold change /veh TMEM200A (11744735_a_at) / RFU CCDC152 (11751479_a_at) / Fold change /veh CCDC152 (11751479_a_at) / RFU FAM211A (11726209_a_at) / Fold change /veh FAM211A (11726209_a_at) / RFU RGS16 (11746705_a_at) / Fold change /veh RGS16 (11746705_a_at) / RFU VCAN (11755009_s_at) / Fold change /veh VCAN (11755009_s_at) / RFU RHOB (11743442_s_at) / Fold change /veh RHOB (11743442_s_at) / RFU RGS16 (11720943_a_at) / Fold change /veh RGS16 (11720943_a_at) / RFU RGS16 (11720944_at) / Fold change /veh RGS16 (11720944_at) / RFU, VPS4B / Fold change vs veh, VPS4B / RFU, CREB1 / Fold change vs veh, CREB1 / RFU, DNAJC13 / Fold change vs veh, DNAJC13 / RFU, GNAQ / Fold change vs veh, GNAQ / RFU, CDK5R1 / Fold change vs veh, CDK5R1 / RFU, ZRANB3 / Fold change vs veh, ZRANB3 / RFU, CUL4A / Fold change vs veh, CUL4A / RFU, CCNY / Fold change vs veh, CCNY / RFU, UFL1 / Fold change vs veh, UFL1 / RFU, COG3 / Fold change vs veh, COG3 / RFU, DIAPH2 / Fold change vs veh, DIAPH2 / RFU, SKA2 / Fold change vs veh, SKA2 / RFU, AFF3 / Fold change vs veh, AFF3 / RFU, LMF1 / Fold change vs veh, LMF1 / RFU, IPO11 / Fold change vs veh, IPO11 / RFU, DFFB / Fold change vs veh, DFFB / RFU, FOXP1 / Fold change vs veh, FOXP1 / RFU, CARD8 / Fold change vs veh, CARD8 / RFU, STRN3 / Fold change vs veh, STRN3 / RFU, ADK / Fold change vs veh, ADK / RFU, RASSF2 / Fold change vs veh, RASSF2 / RFU, WIPF1 / Fold change vs veh, WIPF1 / RFU, LARP1B / Fold change vs veh, LARP1B / RFU, RASA1 / Fold change vs veh, RASA1 / RFU, RB1 / Fold change vs veh, RB1 / RFU, PPFIA1 / Fold change vs veh, PPFIA1 / RFU, MAT2A / Fold change vs veh, MAT2A / RFU, CCT5 / Fold change vs veh, CCT5 / RFU, WDR92 / Fold change vs veh, WDR92 / RFU, CUX1 / Fold change vs veh, CUX1 / RFU, TTC7A / Fold change vs veh, TTC7A / RFU, TMEM135 / Fold change vs veh, TMEM135 / RFU, DEPTOR / Fold change vs veh, DEPTOR / RFU, CPM / Fold change vs veh, CPM / RFU, DNAJB6 / Fold change vs veh, DNAJB6 / RFU, CACNA2D3 / Fold change vs veh, CACNA2D3 / RFU, DTX4 / Fold change vs veh, DTX4 / RFU, TFCP2 / Fold change vs veh, TFCP2 / RFU, GMCL1 /// GMCL1P1 / Fold change vs veh, GMCL1 /// GMCL1P1 / RFU, AEBP2 / Fold change vs veh, AEBP2 / RFU, SNHG1 /// SNORD22 /// SNORD25 /// SNORD26 /// SNORD27 /// SNORD28 /// SNORD29 /// SNORD31 / Fold change vs veh, SNHG1 /// SNORD22 /// SNORD25 /// SNORD26 /// SNORD27 /// SNORD28 /// SNORD29 /// SNORD31 / Fold change (Aza/veh), C12orf56 (ProbeSet 11735607_a_at) / Fold change (ACY-1035/veh), C12orf56 (ProbeSet 11735607_a_at) / Fold change (Aza/veh), FGFR1OP (ProbeSet 11751329_s_at) / Fold change (ACY-1035/veh), FGFR1OP (ProbeSet 11751329_s_at) / Fold change (Aza/veh), VPS36 (ProbeSet 11739960_a_at) / Fold change (ACY-1035/veh), VPS36 (ProbeSet 11739960_a_at) / RFU SYPL1 (11715823_x_at) / Fold change /veh SYPL1 (11715823_x_at) / RFU IGFBP7 (11715501_s_at) / Fold change /veh IGFBP7 (11715501_s_at) / RFU REEP3 (11722064_at) / Fold change /veh REEP3 (11722064_at) / RFU IGLL1 (11728026_x_at) / Fold change /veh IGLL1 (11728026_x_at): dose or concentration left out as unconfirmed
Conditions: ProbeSet 11741123_x_at; LIST D

Nc1ncn([C@@H]2O[C@H](CO)[C@@H](O)[C@H]2O)c(=O)n1 [azacitidine]
Fold change vs veh, ADK: 0.72
